What was measured:
Assay in all cases: relative viability (nuclei count vs DMSO), 5 days (fraction); higher = more cells survive
Masitinib + Linsitinib = compound: Cc1ccc(NC(=O)c2ccc(CN3CCN(C)CC3)cc2)cc1Nc1nc(-c2cccnc2)cs1 [Masitinib] + C[C@]1(O)C[C@@H](c2nc(-c3ccc4ccc(-c5ccccc5)nc4c3)c3c(N)nccn32)C1 [Linsitinib] (partner 1 µM)
Summary of the method: (§1)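 Dosing by pin tool came one day after lung cancer cell lines were seeded in 1536-well plates, using either one drug or a fixed anchor-drug dose plus five library-drug doses (not always all listed) in √10 steps. After 5 days, nuclei were counted on 4× images. Relative viability is treated-well nuclei count divided by vehicle-well nuclei count, and values are medians of duplicate plates.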

Masitinib + Crizotinib = compound: Cc1ccc(NC(=O)c2ccc(CN3CCN(C)CC3)cc2)cc1Nc1nc(-c2cccnc2)cs1 [Masitinib] + C[C@@H](Oc1cc(-c2cnn(C3CCNCC3)c2)cnc1N)c1c(Cl)ccc(F)c1Cl [Crizotinib] (partner 1 µM)
Summary of the method: as §1

[1] = compound: CC1=CC(=CC=C1)NC2=NC(=CS2)C3=CC=NC=C3 + CC1(C)CCC(c2ccc(Cl)cc2)=C(CN2CCN(c3ccc(C(=O)NS(=O)(=O)c4ccc(N[C@H](CCN5CCOCC5)CSc5ccccc5)c(S(=O)(=O)C(F)(F)F)c4)cc3)CC2)C1 [Navitoclax] (partner 0.5 µM)
Summary of the method: as §1

[2] = compound: CC1=CC(=CC=C1)NC2=NC(=CS2)C3=CC=NC=C3 + CC(=O)c1c(C)c2cnc(Nc3ccc(N4CCNCC4)cn3)nc2n(C2CCCC2)c1=O [Palbociclib] (partner 0.5 µM)
Summary of the method: as §1

Row | Cell Line | relative viability (Masitinib + Linsitinib; first compound 0.01 µM) | relative viability (Masitinib + Linsitinib; first compound 0.03162 µM) | relative viability (Masitinib + Linsitinib; first compound 0.1 µM) | relative viability (Masitinib + Linsitinib; first compound 0.3162 µM) | relative viability (Masitinib + Linsitinib; first compound 1 µM) | relative viability (Masitinib + Crizotinib; first compound 0.01 µM) | relative viability (Masitinib + Crizotinib; first compound 0.03162 µM) | relative viability (Masitinib + Crizotinib; first compound 0.1 µM) | relative viability (Masitinib + Crizotinib; first compound 0.3162 µM) | relative viability (Masitinib + Crizotinib; first compound 1 µM) | relative viability ([1]; first compound 0.8 µM) | relative viability ([1]; first compound 2.53 µM) | relative viability ([1]; first compound 8 µM) | relative viability ([2]; first compound 0.08 µM) | relative viability ([2]; first compound 0.253 µM) | relative viability ([2]; first compound 0.8 µM) | relative viability ([2]; first compound 2.53 µM) | relative viability ([2]; first compound 8 µM) | relative viability ([1]; first compound 0.08 µM) | relative viability ([1]; first compound 0.253 µM)
1 | LCLC-97TM1 | 0.157 | 0.151 | 0.197 | 0.144 | 0.181 | 0.27 | 0.31 | 0.394 | 0.288 | 0.238 | 0.641 | 0.385 | 0.418 | 0.172 | 0.216 | 0.206 | 0.217 | 0.276 |  | 
2 | LK-2 | 0.511 | 0.573 | 0.618 | 0.649 | 0.812 | 0.248 | 0.246 | 0.21 | 0.217 | 0.188 | 0.901 |  | 1.46 |  | 0.764 | 0.675 | 0.699 | 1.06 | 0.917 | 0.958
3 | LOU-NH91 | 0.909 | 0.893 | 0.972 | 0.928 | 0.911 | 0.706 | 0.683 | 0.768 | 0.73 | 0.712 | 0.625 | 0.774 | 0.434 | 0.571 | 0.572 | 0.547 | 0.54 | 0.545 | 0.611 | 0.619
4 | LU99A | 0.511 | 0.53 | 0.512 | 0.719 | 0.505 | 0.592 | 0.629 | 0.62 | 0.639 | 0.527 | 0.838 | 0.835 | 0.978 | 0.387 | 0.384 | 0.42 | 0.39 | 0.468 |  | 0.861
5 | LXF-289 | 0.804 | 0.999 | 0.901 | 0.981 | 0.944 | 0.701 | 0.783 | 0.818 | 0.835 | 0.802 | 0.939 | 0.908 | 0.822 | 0.57 | 0.642 | 0.57 | 0.645 | 0.553 | 0.944 | 0.921
6 | NCI-H23 | 0.656 | 0.58 | 0.613 | 0.525 | 0.493 | 0.524 | 0.423 | 0.597 | 0.463 | 0.465 | 1 | 0.831 | 0.999 | 0.37 | 0.459 | 0.518 | 0.479 | 0.524 | 0.822 | 0.832
7 | NCI-H322M | 0.975 | 0.736 | 0.91 | 0.681 | 0.912 | 0.745 | 0.956 | 1.02 | 0.9 | 0.873 | 1.19 | 1.29 | 1.12 | 0.463 | 0.47 | 0.565 | 0.574 | 0.563 | 1.19 | 1.12
8 | NCI-H441 | 0.563 | 0.532 | 0.501 | 0.534 | 0.497 | 0.741 | 0.804 | 0.919 | 0.665 | 0.696 | 0.673 | 0.64 | 0.777 | 0.214 | 0.205 | 0.261 | 0.224 | 0.184 | 0.327 | 0.42
9 | NCI-H460 | 0.934 | 0.934 | 0.977 | 1.26 | 1.07 | 0.748 | 0.763 | 1.03 | 0.647 | 0.911 | 1.08 | 1.13 | 1 | 0.0801 | 0.0813 | 0.0708 | 0.0785 | 0.086 | 1.13 | 1.08
10 | NCI-H520 | 1.12 |  | 1.15 | 0.97 | 0.915 | 0.766 |  | 0.921 | 0.908 | 0.577 | 1.15 | 1.12 | 1.15 | 0.217 | 0.234 | 0.239 | 0.261 | 0.291 | 1.04 | 1.09
11 | NCI-H647 | 1.03 | 1.19 | 1.03 | 0.849 | 1.26 | 1.06 | 0.987 | 1.1 | 1.21 | 1.21 | 0.938 | 1.1 | 0.942 | 0.379 | 0.262 | 0.369 | 0.442 | 0.365 | 0.799 | 0.887
12 | NCI-H727 | 0.228 | 0.268 | 0.297 | 0.281 | 0.196 | 0.824 | 0.844 | 0.925 | 0.778 | 0.91 | 0.383 | 0.345 | 0.269 | 0.725 |  | 0.541 |  | 0.695 | 0.458 | 0.372
13 | NCI-H838 | 0.895 | 0.913 | 1.16 | 0.86 | 1.05 | 0.95 | 0.71 | 0.828 | 0.651 | 0.818 | 1.04 | 1.09 | 0.924 | 0.22 | 0.205 | 0.207 | 0.217 | 0.179 | 0.954 | 1.09
14 | NCI-H1355 | 0.808 | 0.697 | 0.884 | 0.743 | 0.801 | 1.06 | 1.1 | 1.07 | 0.746 | 1.01 | 0.591 | 0.555 | 0.577 | 0.35 | 0.282 | 0.27 | 0.285 | 0.284 | 0.783 | 0.69
15 | NCI-H1437 | 1.1 | 0.991 | 0.986 | 1.04 | 1.07 | 0.896 | 0.875 | 0.923 | 1.04 | 0.94 | 1.04 | 1.13 | 0.96 | 0.316 | 0.331 | 0.301 | 0.23 | 0.289 | 1.04 | 1.06
16 | NCI-H1651 | 0.971 | 0.97 | 1.14 | 1 | 0.944 | 0.802 | 0.89 | 0.819 | 0.839 | 0.839 | 0.948 | 1.05 | 0.899 | 0.492 | 0.486 | 0.507 | 0.523 | 0.543 | 0.894 | 1.2

Reference: the supplement of paper PMC10307832
